Data set [1] can be described thus: Water miscibility of silyl-protected ionic liquid. Format: physicochemical. The method, then:
Dry 3-HOPMIm PF6(2.86 g, 10 mmol) was placed in a round-bottomed flask and dissolved in 50 ml dry THF. Dry trimethylsilyl (TMS) chloride (1.05 g) was added in dry THF solution, dropwise over a period of 30 minutes, with external cooling and stirring, under an atmosphere of dry argon. Stirring was continued for 12 hours.
At the completion of the reaction (TLC), the solvent was removed in vacuo to yield the silyl-protected ionic liquid (3.52 g, 98%), 3-TMSOPMIm PF6.

Data set [2] deals with T1, morphine dehydrogenase (MDH) (Pseudomonas putida, UniProt Q02198).
T1 sequence (Q02198 1-296): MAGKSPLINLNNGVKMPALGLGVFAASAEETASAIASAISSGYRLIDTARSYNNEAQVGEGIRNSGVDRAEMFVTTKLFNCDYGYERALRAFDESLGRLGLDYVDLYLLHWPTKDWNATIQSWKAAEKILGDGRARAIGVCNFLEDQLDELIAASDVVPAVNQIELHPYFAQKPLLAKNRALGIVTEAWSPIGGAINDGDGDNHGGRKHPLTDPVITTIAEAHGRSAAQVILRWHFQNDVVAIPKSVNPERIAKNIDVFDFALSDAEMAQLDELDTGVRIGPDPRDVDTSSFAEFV
Conditions: ionic liquid as medium, cited from earlier work; for Net % codeinone: <100 ppm water, glucose dehydrogenase recycling NADP+.

The nature of data set [3]: Viscosity of ionic liquid (AND Vibro SV10). Format: physicochemical. Conditions: at 25° C. As for the experimental part: (§1) Refractive index was measured using a Mettler Toledo Refracto™ 30PX, using a single wavelength light source (the sodium D-line at 589.3 nm). Viscosity was measured using an AND Vibro™ SV10 instrument, which measures viscosity by controlling the amplitude of vibrations of sensor plates submerged in a liquid, detecting changes in the electric current needed to drive the plates.

Data set [4] is described as follows: Refractive index of ionic liquid (Mettler Toledo Refracto 30PX, sodium D-line 589.3 nm). The data set is classed as physicochemical. Conditions: sodium D-line at 589.3 nm. The method, then:
as §1

Data set [5] is described as follows: Solubility of penicillin G (sodium salt) in ionic liquid solvents. Format: physicochemical.

Read-outs that look alike come from different tables or passages of the source.

As to `Cn1cc[n+](CCCO[Si](C)(C)C)c1.F[P-](F)(F)(F)(F)F` [3-TMSOPMIm PF6], the miscibility with water entry in data set [1] is listed as “effectively immiscible with water”.
With `CCCCn1cc[n+](C)c1.F[P-](F)(F)(F)(F)F` [BMIm PF6], the Net % codeinone in data set [2] (1 hour) was 0%; in data set [2] (4 hours) it was 0%; in data set [2] (24 hours), 2%. Moreover, the “MDH activity in the ionic liquid (in words)” value (“MDH activity” below) in data set [2] is “extremely low”.
For `CCCCn1cc[n+](C)c1.O=C([O-])CO` [BMIm glycolate], the values for the Net % codeinone in data set [2] (1 hour), in data set [2] (4 hours) and in data set [2] (24 hours) were 0%, 5% and 12%, respectively. For the same compound, the “MDH activity” value in data set [2] was “greatly improved”.
As for `C[n+]1ccn(CCCO)c1.[Cl-]` [HOPMIm Cl, hydroxypropyl methyl imidazolium chloride], the Net % codeinone is 0% in data set [2] (1 hour), 0% in data set [2] (4 hours) and “Small” in data set [2] (24 hours). Besides, in data set [2], the “MDH activity” value is reported as “very little activity”.
In the case of `C[n+]1ccn(CCCO)c1.F[P-](F)(F)(F)(F)F` [HOPMIm PF6], the Net % codeinone in data set [2] (1 hour) was 2%; in data set [2] (4 hours) it was 9%; in data set [2] (24 hours) it was 20%. Moreover, the “MDH activity” value in data set [2] is given as “high level”.
Regarding `C[n+]1ccn(CCCO)c1.O=C([O-])CO` [HOPMIm glycolate], the Net % codeinone result in data set [2] (1 hour) is recorded as “small”; in data set [2] (4 hours), 5%; in data set [2] (24 hours), 16%. In data set [2], the “MDH activity” value was “moderate level of activity”.
As for `CC(=O)O.CCCCN(CCO)CCO` [Pure n-butyl diethanolammonium acetate, n-butyl diethanolammonium acetate], the Viscosity in data set [3] is ~285 mPa · s. In data set [4], the Refractive index came to 1.464.
The matching figures for `CCCCN(CCO)CCO.O=C(O)C(F)(F)F` [n-butyl diethanolammonium trifluoroacetate]: 440 mPa · s and 1.434.
As for `CC1(C)S[C@@H]2[C@H](NC(=O)Cc3ccccc3)C(=O)N2[C@H]1C(=O)[O-].[Na+]` [penicillin G (sodium salt)], the solubility in data set [5] (in dimethyl ethanolammonium crotonate/ethanol (25/75 v/v)) is ~50 mg/mL; in data set [5] (in dimethyl ethanolammonium trifluoroacetate/ethanol (25/75 v/v)), 76 mg/mL; in data set [5] (in pure dimethyl ethanolammonium crotonate) it was ~20 mg/mL; in data set [5] (in pure dimethyl ethanolammonium trifluoroacetate), > 275 mg/mL.
